Measurements published in PubChem BioAssay AID1259407 (Chemical Carcinogenesis Research Information System (CCRIS), 2018).
The source made the active and inactive calls. How the calls were made is not given here.

Tested on: CCRIS mutagenicity, Ames/micronucleus/aberration tests
Test: CCRIS mutagenicity studies
[1] = Test System: AMES SALMONELLA TYPHIMURIUM, Strain/Indicator: TA100, Metabolic Activation: NONE, Method: STANDARD PLATE

With `O=[N+]([O-])c1cccc2oc3ccccc3c12` the mutagenic call (Test System: AMES SALMONELLA TYPHIMURIUM, Strain/Indicator: TA98(1,8-DNP6), Metabolic Activation: NONE, Method: PREINCUBATION) was “inactive; negative”, the mutagenic call (Test System: AMES SALMONELLA TYPHIMURIUM, Strain/Indicator: TA98(1,8-DNP6), Metabolic Activation: NONE, Method: SUSPENSION) was “inactive; negative” and the mutagenic call (Test System: AMES SALMONELLA TYPHIMURIUM, Strain/Indicator: TA98(1,8-DNP6), Metabolic Activation: RAT, LIVER, S-9, PCB (5%), Method: PREINCUBATION) was “inactive; negative”. For the same compound, the mutagenic call (Test System: AMES SALMONELLA TYPHIMURIUM, Strain/Indicator: TA98(NR), Metabolic Activation: NONE, Method: PREINCUBATION) was “inactive; negative”, the mutagenic call (Test System: AMES SALMONELLA TYPHIMURIUM, Strain/Indicator: TA98(NR), Metabolic Activation: NONE, Method: SUSPENSION) was “inactive; negative” and the mutagenic call (Test System: AMES SALMONELLA TYPHIMURIUM, Strain/Indicator: TA98(NR), Metabolic Activation: RAT, LIVER, S-9 (10%), Method: PREINCUBATION) was “inactive; negative”. The mutagenic call (Test System: AMES SALMONELLA TYPHIMURIUM, Strain/Indicator: TA98(NR), Metabolic Activation: RAT, LIVER, S-9, 3-METHYLCHOLANTHRENE (10%), Method: PREINCUBATION) was “active; positive”, the mutagenic call (Test System: AMES SALMONELLA TYPHIMURIUM, Strain/Indicator: TA98(NR), Metabolic Activation: RAT, LIVER, S-9, BETA-NAPHTHOFLAVONE (10%), Method: PREINCUBATION) was “inactive; negative” and the mutagenic call (Test System: AMES SALMONELLA TYPHIMURIUM, Strain/Indicator: TA98(NR), Metabolic Activation: RAT, LIVER, S-9, PCB (5%), Method: PREINCUBATION) was “inactive; negative”. For the same compound, the mutagenic call (Test System: AMES SALMONELLA TYPHIMURIUM, Strain/Indicator: TA98(NR), Metabolic Activation: RAT, LIVER, S-9, PCB (10%), Method: PREINCUBATION) was “inactive; negative”, the mutagenic call (Test System: AMES SALMONELLA TYPHIMURIUM, Strain/Indicator: TA98(NR), Metabolic Activation: RAT, LIVER, S-9, PHENOBARBITAL (10%), Method: PREINCUBATION) was “inactive; negative” and the mutagenic call (Test System: AMES SALMONELLA TYPHIMURIUM, Strain/Indicator: TA98, Metabolic Activation: NONE, Method: PREINCUBATION) was “inactive; negative”. For the same compound, the mutagenic call (Test System: AMES SALMONELLA TYPHIMURIUM, Strain/Indicator: TA98, Metabolic Activation: NONE, Method: SUSPENSION) was “inactive; negative”, the mutagenic call (Test System: AMES SALMONELLA TYPHIMURIUM, Strain/Indicator: TA98, Metabolic Activation: RAT, LIVER, S-9, PCB (5%), Method: PREINCUBATION) was “inactive; negative” and the mutagenic call (Test System: AMES SALMONELLA TYPHIMURIUM, Strain/Indicator: TA98, Metabolic Activation: RAT, LIVER, S-9, PCB, Method: SUSPENSION) was “inactive; negative”. For the same compound, the mutagenic call (Test System: AMES SALMONELLA TYPHIMURIUM, Strain/Indicator: TA100, Metabolic Activation: NONE, Method: PREINCUBATION) was “inactive; negative”, the mutagenic call (Test System: AMES SALMONELLA TYPHIMURIUM, Strain/Indicator: TA100, Metabolic Activation: NONE, Method: SUSPENSION) was “inactive; negative” and the mutagenic call (Test System: AMES SALMONELLA TYPHIMURIUM, Strain/Indicator: TA100, Metabolic Activation: RAT, LIVER, S-9, PCB (5%), Method: PREINCUBATION) was “inactive; negative”. For the same compound, the mutagenic call (Test System: AMES SALMONELLA TYPHIMURIUM, Strain/Indicator: TA100, Metabolic Activation: RAT, LIVER, S-9, PCB, Method: SUSPENSION) was “inactive; negative”.

In the case of `O=[N+]([O-])c1c2c(cc3ccccc13)C=C[C@@H](O)[C@@H]2O`, the mutagenic call (Test System: AMES SALMONELLA TYPHIMURIUM, Strain/Indicator: TA98, Metabolic Activation: NONE, Method: STANDARD PLATE) is reported as “inactive; negative”, the mutagenic call (Test System: AMES SALMONELLA TYPHIMURIUM, Strain/Indicator: TA98, Metabolic Activation: RAT, LIVER, S-9, Method: STANDARD PLATE) is reported as “inactive; negative” and the mutagenic call [1] is reported as “inactive; negative”. The mutagenic call (Test System: AMES SALMONELLA TYPHIMURIUM, Strain/Indicator: TA100, Metabolic Activation: RAT, LIVER, S-9, Method: STANDARD PLATE) was “inactive; negative”.

For `O=CC=O`, the mutagenic call (End Point: IN VITRO CHROMOSOMAL ABERRATIONS, Test System: CHL CELLS, Metabolic Activation: NONE) was “active; positive (structural and ploidy changes)”, the mutagenic call (End Point: IN VITRO CHROMOSOMAL ABERRATIONS, Test System: CHL CELLS, Metabolic Activation: RAT, LIVER, S-9, SODIUM PHENOBARBITAL AND 5,6-BENZOFLAVONE) was “active; positive (structural and ploidy changes)” and the mutagenic call (Test System: AMES SALMONELLA TYPHIMURIUM, Strain/Indicator: TA97, Metabolic Activation: NONE, Method: PREINCUBATION) was “inactive; negative”. For the same compound, the mutagenic call (Test System: AMES SALMONELLA TYPHIMURIUM, Strain/Indicator: TA98, Metabolic Activation: RAT, LIVER, S-9, AROCLOR 1254, Method: PREINCUBATION) was “active; positive”, the mutagenic call (Test System: AMES SALMONELLA TYPHIMURIUM, Strain/Indicator: TA100, Metabolic Activation: NONE) was “active; positive” and the mutagenic call [1] was “active; positive”. The mutagenic call (Test System: AMES SALMONELLA TYPHIMURIUM, Strain/Indicator: TA100, Metabolic Activation: RAT LIVER S-9, PHENOBARBITAL AND BETA-NAPHTHOFLAVONE, Method: PREINCUBATION) was “active; positive”, the mutagenic call (Test System: AMES SALMONELLA TYPHIMURIUM, Strain/Indicator: TA100, Metabolic Activation: RAT, LIVER, S-9, AROCLOR 1254, Method: PREINCUBATION) was “active; positive” and the mutagenic call (Test System: AMES SALMONELLA TYPHIMURIUM, Strain/Indicator: TA100, Metabolic Activation: RAT, LIVER, S-9, PHENOBARBITAL AND 5,6-BENZOFLAVONE, Method: PREINCUBATION) was “active; positive”. The mutagenic call (Test System: AMES SALMONELLA TYPHIMURIUM, Strain/Indicator: TA100, Metabolic Activation: S-9) was “active; positive”, the mutagenic call (Test System: AMES SALMONELLA TYPHIMURIUM, Strain/Indicator: TA102, Metabolic Activation: RAT, LIVER, S-9, AROCLOR 1254, Method: PREINCUBATION) was “active; positive” and the mutagenic call (Test System: AMES SALMONELLA TYPHIMURIUM, Strain/Indicator: TA102, Metabolic Activation: RAT, LIVER, S-9, AROCLOR 1254, Method: STANDARD PLATE) was “active; positive”. For the same compound, the mutagenic call (Test System: AMES SALMONELLA TYPHIMURIUM, Strain/Indicator: TA102, Metabolic Activation: RAT, LIVER, S-9, PHENOBARBITAL AND 5,6-BENZOFLAVONE, Method: PREINCUBATION) was “active; positive”, the mutagenic call (Test System: AMES SALMONELLA TYPHIMURIUM, Strain/Indicator: TA104, Metabolic Activation: NONE, Method: PREINCUBATION) was “active; positive” and the mutagenic call (Test System: AMES SALMONELLA TYPHIMURIUM, Strain/Indicator: TA104, Metabolic Activation: RAT, LIVER, S-9, PHENOBARBITAL AND 5,6-BENZOFLAVONE, Method: PREINCUBATION) was “active; positive”. For the same compound, the mutagenic call (Test System: AMES SALMONELLA TYPHIMURIUM, Strain/Indicator: TA1535, Metabolic Activation: RAT LIVER S-9, PHENOBARBITAL AND BETA-NAPHTHOFLAVONE, Method: PREINCUBATION) was “active; positive”, the mutagenic call (Test System: AMES SALMONELLA TYPHIMURIUM, Strain/Indicator: TA1537, Metabolic Activation: NONE, Method: PREINCUBATION) was “active; positive” and the mutagenic call (Test System: AMES SALMONELLA TYPHIMURIUM, Strain/Indicator: TA1537, Metabolic Activation: RAT LIVER S-9, PHENOBARBITAL AND BETA-NAPHTHOFLAVONE, Method: PREINCUBATION) was “inactive; negative”. For the same compound, the mutagenic call (Test System: AMES SALMONELLA TYPHIMURIUM, Strain/Indicator: TA2638A, Metabolic Activation: RAT LIVER S-9, AROCLOR 1254, Method: STANDARD PLATE) was “active; positive”, the mutagenic call (Test System: AMES SALMONELLA TYPHIMURIUM, Strain/Indicator: TA7001, Metabolic Activation: NONE, Method: PREINCUBATION) was “inactive; negative” and the mutagenic call (Test System: AMES SALMONELLA TYPHIMURIUM, Strain/Indicator: TA7002, Metabolic Activation: NONE, Method: PREINCUBATION) was “inactive; negative”. The mutagenic call (Test System: AMES SALMONELLA TYPHIMURIUM, Strain/Indicator: TA7003, Metabolic Activation: NONE, Method: PREINCUBATION) was “inactive; negative”, the mutagenic call (Test System: AMES SALMONELLA TYPHIMURIUM, Strain/Indicator: TA7004, Metabolic Activation: NONE, Method: PREINCUBATION) was “active; positive” and the mutagenic call (Test System: AMES SALMONELLA TYPHIMURIUM, Strain/Indicator: TA7005, Metabolic Activation: NONE, Method: PREINCUBATION) was “active; positive”. For the same compound, the mutagenic call (Test System: AMES SALMONELLA TYPHIMURIUM, Strain/Indicator: TA7006, Metabolic Activation: NONE, Method: PREINCUBATION) was “active; positive”, the mutagenic call (Test System: E. COLI, Strain/Indicator: W3110, Metabolic Activation: NONE, Method: PREINCUBATION) was “active; positive” and the mutagenic call (Test System: E. COLI, Strain/Indicator: WP2UVRA, Metabolic Activation: NONE, Method: PREINCUBATION) was “active; positive”. For the same compound, the mutagenic call (Test System: E. COLI, Strain/Indicator: WP2UVRA, Metabolic Activation: RAT LIVER S-9, PHENOBARBITAL AND BETA-NAPHTHOFLAVONE, Method: PREINCUBATION) was “active; positive” and the mutagenic call (Test System: MOUSE LYMPHOMA, Strain/Indicator: L5178Y (TK+/TK-), Metabolic Activation: NONE, Method: SUSPENSION/PLATE) was “active; positive”.
